Values of other authors as cited in US12358215B2, “Binders and methods of binder jetting including branched polymer binders and articles made therefrom” (VIRGINIA TECH INTELLECTUAL PROPERTIES, INC., priority 2019, dated 2025).

In the case of `CC(=O)Nc1ccc(O)cc1` [Acetaminophen, acetaminophen], the “solubility in cold water” value is given as “only slightly soluble”.
